By Kd is commonly meant the equilibrium constant for the complex coming apart. Higher therefore signals weaker binding.

Experimental findings from paper PMC12648010 (Acta Pharmaceutica Sinica. B, 2025) are described below.

The experiment has as its target T1, SLC38A9 (Homo sapiens, UniProt Q8NBW4).
T1 sequence (Q8NBW4 1-561): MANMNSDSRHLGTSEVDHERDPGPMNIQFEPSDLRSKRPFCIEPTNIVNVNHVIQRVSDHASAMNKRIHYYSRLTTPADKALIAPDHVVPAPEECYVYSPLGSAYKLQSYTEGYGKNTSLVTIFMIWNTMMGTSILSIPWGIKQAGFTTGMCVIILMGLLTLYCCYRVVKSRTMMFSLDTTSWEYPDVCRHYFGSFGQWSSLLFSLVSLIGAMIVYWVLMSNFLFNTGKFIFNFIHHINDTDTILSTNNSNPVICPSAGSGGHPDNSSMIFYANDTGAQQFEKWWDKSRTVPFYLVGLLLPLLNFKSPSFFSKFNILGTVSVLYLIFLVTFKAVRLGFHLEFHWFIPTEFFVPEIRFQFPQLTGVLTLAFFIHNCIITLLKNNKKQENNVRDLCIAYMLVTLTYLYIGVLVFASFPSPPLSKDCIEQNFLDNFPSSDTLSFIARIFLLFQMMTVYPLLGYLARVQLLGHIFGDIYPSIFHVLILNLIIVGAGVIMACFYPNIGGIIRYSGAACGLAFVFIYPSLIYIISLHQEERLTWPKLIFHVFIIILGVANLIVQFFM
Put plainly: SPR. Type of experiment: binding.

`C=CC(=O)Nc1cccc2[nH]nc(-c3nc4ccc(N5CCN(C)CC5)cc4[nH]3)c12` [LLAD, N-(3-(6-(4-Methylpiperazin-1-yl) -1H-benzo[d]imidazole-2-yl)-1H-indazol-4-yl) acrylamide] displayed a Kd of 1290 nM.
